Measurements as given in patent publication US5594019A, “6-heterocyclic-4-amino-1,3,4,5-tetrahydrobenz[CD]indoles” (Eli Lilly and Company, priority 1994, dated 1997).
Like-named read-outs stand apart in the source and are kept apart here.

Key:
[1] = test system: serotonin metabolite 5-hydroxyindole acetic acid (5HIAA); assay: Effect on serotonin turnover in vivo, decrease of 5HIAA concentration in whole brain; parameters: species or system Male albino rats; conditions: Rattus norvegicus, 1 h, rats, whole brain 5HIAA, one hour after dosing (generally a 15-20% decrease)
Procedure: In another experiment certain compounds of Formula 1 were evaluated to determine ability to affect serotonin turnover in vivo. As a measure of such affect on serotonin turnover, the decrease of the serotonin metabolite 5-hydroxyindole acetic acid (5HIAA) was measured. The following protocol was employed.
Male albino rats were injected either subcutaneously or orally with an aqueous solution of the compound tested. The pH of the solution was adjusted as necessary to solubilize the compound. A control of the solution without the test compound was similarly administered to a control animal. The rats were decapitated one hour later. The whole brain was then removed and frozen on dry ice for storage prior to analysis. 5-Hydroxyindole acetic acid (5HIAA) concentration in whole brain was measured by liquid chromatography with electrochemical detection as reported by Fuller and Perry, "Effects of Buspirone and its Metabolite, 1-(2-pyrimidinyi)piperazine, on Brain Monoamines and Their Metabolites in Rats", J. Pharmacol. Ext. Ther., 248, p. 50-56 (1989), incorporated herein by reference.
In Table III, Column 1 provides the Example No. of the compound tested while Column 2 provides the minimum effective dose (in mg/kg) required to produce a statistically significant decrease in 5HIAA concentration relative to control (generally a 15-20% decrease) for both oral and subcutaneous methods of administration.

5-HT1A receptor = biological target: T1, 5-HT1A receptor (Rattus norvegicus, UniProt P19327); assay: In vitro binding at the 5-HT1A receptor, inhibition of [3H]8-OH-DPAT binding to hippocampal membranes; parameters: species or system male Sprague-Dawley rats; conditions: [3H]8-OH-DPAT (1.0 nM), 10 minutes at 37° C., pH 7.4
T1 construct: the brains were rapidly chilled and dissected to obtain the hippocampi; from tissue; host or cells: hippocampus of male Sprague-Dawley rats (membranes)
T1 sequence (P19327 1-422): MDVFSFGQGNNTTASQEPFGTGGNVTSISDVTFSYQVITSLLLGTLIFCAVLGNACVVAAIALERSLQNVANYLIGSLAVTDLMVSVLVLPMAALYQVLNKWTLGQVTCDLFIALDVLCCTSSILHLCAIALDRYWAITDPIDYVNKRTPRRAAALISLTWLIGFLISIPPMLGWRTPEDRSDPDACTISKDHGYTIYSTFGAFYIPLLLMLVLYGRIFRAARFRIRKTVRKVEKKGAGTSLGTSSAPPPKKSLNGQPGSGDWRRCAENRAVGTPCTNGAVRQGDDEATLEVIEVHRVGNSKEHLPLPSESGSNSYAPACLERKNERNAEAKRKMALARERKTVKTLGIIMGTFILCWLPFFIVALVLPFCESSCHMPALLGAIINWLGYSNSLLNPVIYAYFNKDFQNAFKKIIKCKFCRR
Procedure: The affinities of certain of the compounds of Formula 1 at the central 5-HT1A receptors were determined using a modification of the binding assay described by Taylor, et al., J. Pharmacol. Exp. Ther., 236, 118-125 (1986). Membranes for the binding assay were prepared from male Sprague-Dawley rats (150-250 g). The animals were killed by decapitation, and the brains were rapidly chilled and dissected to obtain the hippocampi. Membranes from the hippocampi were either prepared that day, or the hippocampi were stored frozen (-70° C.) until the day of preparation. The membranes were prepared by homogenizing the tissue in 40 volumes of ice-cold Tris-HCl buffer (50 mM, pH 7.4 at 22° C.) using a Techmar Tissumizer (setting 65 for 15 seconds), and the homogenate was centrifuged at 39800xg for 10 minutes. The resulting pellet was then resuspended in the same buffer, and the centrifugation and resuspension process was repeated three additional times to wash the membranes. Between the second and third washes the resuspended membranes were incubated for 10 minutes at 37° C. to facilitate the removal of endogenous ligands. The final pellet was resuspended in 67 mM Tris-HCl, pH 7.4, to a concentration of 2 mg of tissue original wet weight/200 μl. This homogenate was stored frozen (-70° C.) until the day of the binding assay. […] The assay tubes were incubated for 10 minutes at 37° C., and the contents were then rapidly filtered through GF/B filters (pretreated with 0.5% polyethylenimine), tollowed by four 1 ml washes with ice-cold buffer. The radioactivity trapped by the filters was quantitated by liquid scintillation spectometry, and specific [^3 H]8-OH-DPAT binding to the 5-HT1A sites was defined as the difference between [^3 H]8-OH-DPAT bound in the presence and absence of 10 μM 5-HT.
In Table 1, the first column provides the example number of the compound evaluated while the second column provides the amount of test compound (expressed in nanomolar concentration) required to inhibit the binding of [^3 H]8-OH-DPAT by 50% (indicated as IC50).

5-HT1D receptor = biological target: T2, 5-HT1D receptor (Bos taurus, UniProt F1MGM3); assay: In vitro binding activity at the 5-HT1D receptor, inhibition of [3H]5-HT binding to caudate nuclei membranes; conditions: [3H]5-HT (1.7-1.9 nM), bovine caudate membranes, 8-OH-DPAT and mesulergine 100 nM masking, 10 minutes at 37° C., pH 7.4
T2 construct: Bovine brains were obtained and the caudate nuclei were dissected out; from tissue; host or cells: bovine caudate nuclei (membranes)
T2 sequence (F1MGM3 1-403): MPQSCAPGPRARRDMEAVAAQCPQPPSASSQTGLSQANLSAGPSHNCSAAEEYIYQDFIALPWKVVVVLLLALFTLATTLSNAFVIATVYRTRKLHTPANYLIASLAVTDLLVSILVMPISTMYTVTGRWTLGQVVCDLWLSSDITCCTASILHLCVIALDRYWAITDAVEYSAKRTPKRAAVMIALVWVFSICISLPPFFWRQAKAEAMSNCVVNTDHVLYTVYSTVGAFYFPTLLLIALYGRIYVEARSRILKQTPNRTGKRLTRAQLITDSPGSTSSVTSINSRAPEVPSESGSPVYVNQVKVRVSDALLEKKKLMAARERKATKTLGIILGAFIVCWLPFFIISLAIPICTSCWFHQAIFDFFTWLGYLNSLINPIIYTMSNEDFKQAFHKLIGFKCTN
Procedure: The affinities of certin of the compounds of Formula 1 at the central 5-HT1D binding sites were determined using a modification of the binding assay described by Heuring and Peroutka, J. Neurosci., 7, 894 (1987). Bovine brains were obtained and the caudate nuclei were dissected out and frozen at -70° C. until the time that the membranes were prepared for the binding assays. At that time the tissues were homogenized in 40 volumes of ice-cold Tris-HCl buffer (50 mM, pH 7.4 at 22° C.) with a Techmar Tissumizer (setting 65 for 15 seconds), and the homogenate was centrifuged at 39,800xg for 10 minutes. The resulting pellet was then resuspended in the same buffer, and the centrifugation and resuspension process was repeated three additional times to wash the membranes. Between the second and third washes the resuspended membranes were incubated for 10 minutes at 37° C. to facilitate the removal of endogenous 5-HT. The final pellet was resuspended in Tris buffer to a concentration of 25 mg of original tissue wet weight/ml for use in the binding assay. […] The assay tubes were incubated for 10 minutes at 37° C., and the contents were then rapidly filtered through GF/B filters (pretreated with 0.5% polyethylenimine), followed by four 1 ml washes with ice-cold buffer. The radioactivity trapped by the filters was quantitated by liquid scintillation spectrometry, and specific [^3 H]5-HT binding to the 5-HT1D sites was defined as the difference between [^3 H]5-HT bound in the presence and absence of […] 5-HT.
In Table 2, the first column provides the example number of the compound evaluated while the second column provides the amount of test compound (expressed in nanomolar concentration) required to inhibit the binding of [^3 H]5-HT by 50% (indicated as IC50).

[2] = sc, s.c., read-out: Minimum Effective Dose (mg/kg) s.c., for a statistically significant decrease in 5HIAA concentration relative to control
[3] = po, p.o., read-out: Minimum Effective Dose (mg/kg) p.o., for a statistically significant decrease in 5HIAA concentration relative to control

SMILES: CCCN(CCC)[C@H]1Cc2c[nH]c3ccc(-c4nnc(-c5ccccc5)o4)c(c23)C1 [Example 35, (-)(4R)-6-(5-phenyl-1,3,4-oxadiazol-2-yl)-4-(di-n-propylamino)-1,3,4,5-tetrahydrobenz[cd]indole]
- minimal effective dose [1, 2]: > 1 mg/kg
- IC50 (5-HT1A receptor): 19 nM

SMILES: CCCN(CCC)[C@H]1Cc2c[nH]c3ccc(-c4cccnc4)c(c23)C1 [Example 33, (-)(4R)-6-(3-pyridyl)-4-(di-n-propylamino)-1,3,4,5-tetrahydrobenz[cd]indol]
- minimal effective dose [1, 3]: > 10 mg/kg
- minimal effective dose [1, 2]: 0.3 mg/kg
- IC50 (5-HT1A receptor): 0.87 nM
- IC50 (5-HT1D receptor): 29.4 nM

SMILES: CCCN(CCC)[C@@H]1Cc2c[nH]c3ccc(-c4ccon4)c(c23)C1 [Example 24, (+)(4S)-6-(3-isoxazoly)-4-(di-n-propylamino)-1,3,4,5-tetrahydrobenz[cd]indole]
- IC50 (5-HT1A receptor): 0.61 nM
- IC50 (5-HT1D receptor): 18.6 nM

SMILES: CCCN(CCC)[C@H]1Cc2c[nH]c3ccc(-c4nnco4)c(c23)C1 [Example 34, (4R)-6-[2-(1,3,4-oxadiazolyl)]-4-(di-n-propylamino)-1,3,4,5-tetrahydrobenz[cd]indole]
- minimal effective dose [1, 3]: 10 mg/kg
- minimal effective dose [1, 2]: 0.1 mg/kg
- IC50 (5-HT1A receptor): 0.75 nM
- IC50 (5-HT1D receptor): 577 nM

SMILES: CCCN(CCC)[C@H]1Cc2c[nH]c3ccc(-c4ccno4)c(c23)C1 [Example 26, (-)(4R)-6-(5-isoxazolyl)-4-(di-n-propylamino)-1,3,4,5-tetrahydrobenz[cd]indole]
- IC50 (5-HT1A receptor): 0.1 nM
- IC50 (5-HT1D receptor): 46.4 nM

SMILES: CCCN(CCC)[C@H]1Cc2c[nH]c3ccc(-c4ncco4)c(c23)C1 [Example 31, (-)(4R)-6-(2-oxazolyl)-4-(di-n-propylamino)-1,3,4,5-tetrahydrobenz[cd]indole]
- minimal effective dose [1, 3]: 1 mg/kg
- minimal effective dose [1, 2]: 1 mg/kg
- IC50 (5-HT1A receptor): 2.77 nM
- IC50 (5-HT1D receptor): 280 nM

SMILES: CCCN(CCC)[C@H]1Cc2c[nH]c3ccc(-c4nc(-c5ccccc5)no4)c(c23)C1 [Example 30, (-)(4R)-6-(3-phenyl-1,2,4-oxadiazol-5-yl)-4-(di-n-propylamino)-1,3,4,5-tetrahydrobenz-[cd]indole]
- IC50 (5-HT1A receptor): 7.1 nM

SMILES: CCCN(CCC)[C@H]1Cc2c[nH]c3ccc(-c4cnco4)c(c23)C1 [Example 32, (-)(4R)-6-(5-oxazolyl)-4-(di-n-propylamino)-1,3,4,5-tetrahydrobenz[cd]indole]
- IC50 (5-HT1A receptor): 0.53 nM
- IC50 (5-HT1D receptor): 74.4 nM
